These results are taken from US10160747B2, “Compounds and methods for kinase modulation, and indications therefor” (Plexxikon Inc., priority 2016, dated 2018).

For assay [1], the system named is MOLM-14 D835Y (endogenous FLT3 ITD and transfected FLT3 D835Y). Briefly: MOLM-14 D835Y cell proliferation assay (CellTiter-Glo). The settings on record: Homo sapiens, MOLM-14, 72 h; 3 d growth, GMean. The class given is cell-based. The method in brief:
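Three-day proliferation at 37 °C/5% CO2 of FLT3-ITD MOLM-14 lines with D835Y or F691L mutation, seeded 1×10^4 per well. Compounds at eight points, top 1 μM final, 0.2% DMSO. ATP luminescence (CellTiter-Glo) gives IC50.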

For a further assay, the target named is T1, FLT3-ITD (Homo sapiens, UniProt P36888).
T1 sequence (P36888 1-993): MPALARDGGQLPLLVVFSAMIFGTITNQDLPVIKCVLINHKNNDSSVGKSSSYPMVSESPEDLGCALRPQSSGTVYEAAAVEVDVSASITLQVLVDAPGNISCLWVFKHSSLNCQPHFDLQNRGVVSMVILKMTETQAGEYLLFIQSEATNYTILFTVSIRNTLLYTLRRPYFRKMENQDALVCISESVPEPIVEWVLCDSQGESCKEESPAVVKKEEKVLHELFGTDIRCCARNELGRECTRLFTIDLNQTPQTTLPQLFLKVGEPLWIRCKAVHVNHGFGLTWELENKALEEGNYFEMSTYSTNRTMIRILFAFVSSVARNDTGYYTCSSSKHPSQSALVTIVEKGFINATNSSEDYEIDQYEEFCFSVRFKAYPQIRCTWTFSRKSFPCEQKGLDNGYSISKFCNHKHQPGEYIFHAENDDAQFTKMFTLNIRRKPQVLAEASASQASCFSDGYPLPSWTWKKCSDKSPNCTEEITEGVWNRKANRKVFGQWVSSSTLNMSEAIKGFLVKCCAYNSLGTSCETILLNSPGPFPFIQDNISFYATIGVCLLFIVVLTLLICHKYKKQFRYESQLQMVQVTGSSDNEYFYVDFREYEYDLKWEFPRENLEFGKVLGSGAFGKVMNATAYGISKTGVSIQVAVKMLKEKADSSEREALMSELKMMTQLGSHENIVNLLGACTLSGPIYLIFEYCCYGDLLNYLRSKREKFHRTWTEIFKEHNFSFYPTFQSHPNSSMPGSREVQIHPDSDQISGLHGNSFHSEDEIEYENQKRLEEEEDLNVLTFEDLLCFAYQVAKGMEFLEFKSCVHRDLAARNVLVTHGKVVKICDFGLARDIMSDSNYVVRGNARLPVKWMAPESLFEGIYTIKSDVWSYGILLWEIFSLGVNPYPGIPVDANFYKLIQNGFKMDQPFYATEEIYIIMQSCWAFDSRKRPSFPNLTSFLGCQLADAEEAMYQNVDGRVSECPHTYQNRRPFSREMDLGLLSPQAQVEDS
In words: FLT3-ITD recombinant enzyme kinase assay (AlphaScreen). The class given is biochemical. The settings on record: 8 pt; read-out: FLT3_ITD 8 pt: IC50. The method in brief:
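Substrate 30 nM biotin-GG(EEEEY)10EE; ATP 10 μM (FLT3-ITD, FLT3-D835Y) or 100 μM (c-KIT). Detection: AlphaScreen PY20 kit, 10 μg/mL beads, RT 20 + 60 min. Readout 580 nm; IC50.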

As for `COc1ncc(NC(=O)Cc2ccc(-c3cnc4[nH]nc(N)c4c3)c(F)c2)cc1C(F)(F)F` [Compound P-0203, 2-[4-(3-amino-1H-pyrazolo[3,4-b]pyridin-5-yl)-3-fluoro-phenyl]-N-[6-methoxy-5-(trifluoromethyl)-3-pyridyl]acetamide], the IC50 (in assay [1]; on FLT3-ITD) was 0.0001 to 10 µM each time.
On to `CC(C)(O)C#Cc1cc2cc(-c3ccc(CC(=O)Nc4cncc(C(F)(F)F)c4)cc3)cnc2[nH]1` [Compound P-0204, 2-[4-[2-(3-hydroxy-3-methyl-but-1-ynyl)-1H-pyrrolo[2,3-b]pyridin-5-yl]phenyl]-N-[5-(trifluoromethyl)-3-pyridyl]acetamide], for which the IC50 (in assay [1]; at FLT3-ITD) was 0.0001 to 10 µM in each case.
Regarding `Cn1cc(Nc2ncc(-c3ccc(CC(=O)Nc4cncc(C(F)(F)F)c4)cc3F)cn2)cn1` [Compound P-0205, 2-[3-fluoro-4-[2-[(1-methylpyrazol-4-yl)amino]pyrimidin-5-yl]phenyl]-N-[5-(trifluoromethyl)-3-pyridyl]acetamide], the 50% inhibitory concentration (IC50) (in assay [1]; on FLT3-ITD) was 0.0001 to 10 µM each time.
In the case of `COc1ncc(NC(=O)Cc2ccc(-c3cnc(Nc4cnn(C)c4)nc3)c(F)c2)cc1C(F)(F)F` [Compound P-0206, 2-[3-fluoro-4-[2-[(1-methylpyrazol-4-yl)amino]pyrimidin-5-yl]phenyl]-N-[6-methoxy-5-(trifluoromethyl)-3-pyridyl]acetamide], the IC50 (in assay [1]; at FLT3-ITD) was 0.0001 to 10 µM throughout.
On to `Cn1cc(Nc2ncc(-c3cc(F)c(CC(=O)Nc4cncc(C(F)(F)F)c4)cc3F)cn2)cn1` [Compound P-0207, 2-[2,5-difluoro-4-[2-[(1-methylpyrazol-4-yl)amino]pyrimidin-5-yl]phenyl]-N-[5-(trifluoromethyl)-3-pyridyl]acetamide], for which the half-maximal inhibitory concentration (IC50) (in assay [1]; at FLT3-ITD) was 0.0001 to 10 µM throughout.
On to `O=C(Cc1ccc(-c2cnc(Nc3cnn(C(F)F)c3)nc2)cc1)Nc1cncc(C(F)(F)F)c1` [Compound P-0209, 2-[4-[2-[[1-(difluoromethyl)pyrazol-4-yl]amino]pyrimidin-5-yl]phenyl]-N-[5-(trifluoromethyl)-3-pyridyl]acetamide], for which the half-inhibitory concentration (IC50) (in assay [1]; at FLT3-ITD) was 0.0001 to 10 µM throughout.
`Cc1ncc(NC(=O)Cc2ccc(-c3cnc(Nc4cnn(C(F)F)c4)nc3)cc2)cc1C(F)(F)F` [Compound P-0210, 2-[4-[2-[[1-(difluoromethyl)pyrazol-4-yl]amino]pyrimidin-5-yl]phenyl]-N-[6-methyl-5-(trifluoromethyl)-3-pyridyl]acetamide]: the half-inhibitory concentration (IC50) (in assay [1]; on FLT3-ITD) was 0.0001 to 10 µM in each case.
On to `COc1ncc(NC(=O)Cc2ccc(-c3cnc(Nc4cnn(C(F)F)c4)nc3)cc2)cc1C(F)(F)F` [Compound P-0211, 2-[4-[2-[[1-(difluoromethyl)pyrazol-4-yl]amino]pyrimidin-5-yl]phenyl]-N-[6-methoxy-5-(trifluoromethyl)-3-pyridyl]acetamide], for which the IC50 (in assay [1]; on FLT3-ITD) was 0.0001 to 10 µM each time.
Regarding `COc1ncc(NC(=O)Cc2ccc(-c3cnc4[nH]nc(OC)c4c3)cc2)cc1C(F)(F)F` [Compound P-0212, 2-[4-(3-methoxy-1H-pyrazolo[3,4-b]pyridin-5-yl)phenyl]-N-[6-methoxy-5-(trifluoromethyl)-3-pyridyl]acetamide], the half-inhibitory concentration (IC50) (in assay [1]; at FLT3-ITD) was 0.0001 to 10 µM throughout.
As to `CCOc1n[nH]c2ncc(-c3ccc(CC(=O)Nc4cnc(OC)c(C(F)(F)F)c4)cc3)cc12` [Compound P-0213, 2-(4-(3-ethoxy-1H-pyrazolo[3,4-b]pyridin-5-yl)phenyl)-N-(6-methoxy-5-(trifluoromethyl)pyridin-3-yl)acetamide], the half-inhibitory concentration (IC50) (in assay [1]; on FLT3-ITD) was 0.0001 to 10 µM each time.
For `COc1ncc(NC(=O)Cc2ccc(-c3cnc4[nH]c(C#CC(C)(C)O)cc4c3)cc2)cc1C(F)(F)F` [Compound P-0214, 2-(4-(2-(3-hydroxy-3-methylbut-1-yn-1-yl)-1H-pyrrolo[2,3-b]pyridin-5-yl)phenyl)-N-(6-methoxy-5-(trifluoromethyl)pyridin-3-yl)acetamide], the IC50 (in assay [1]; on FLT3-ITD) was 0.0001 to 10 µM each time.
Take `COc1ncc(NC(=O)Cc2ccc(-c3cnc4[nH]nc(NC(=O)C(F)(F)F)c4c3)cc2)cc1C(F)(F)F` [Compound P-0215, 2,2,2-trifluoro-N-[5-[4-[2-[[6-methoxy-5-(trifluoromethyl)-3-pyridyl]amino]-2-oxo-ethyl]phenyl]-1H-pyrazolo[3,4-b]pyridin-3-yl]acetamide]: the concentration for half-maximal inhibition (IC50) (in assay [1]; on FLT3-ITD) was 0.0001 to 10 µM in each case.
Regarding `COc1ncc(NC(=O)Cc2ccc(-c3cnc4[nH]nc(N)c4c3)cc2)cc1C(F)(F)F` [Compound P-0216, 2-(4-(3-amino-1H-pyrazolo[3,4-b]pyridin-5-yl)phenyl)-N-(6-methoxy-5-(trifluoromethyl)pyridin-3-yl)acetamide], the IC50 (in assay [1]; on FLT3-ITD) was 0.0001 to 10 µM throughout.
As to `CCOc1n[nH]c2ncc(-c3ccc(CC(=O)Nc4cnc(C)c(C(F)(F)F)c4)cc3)cc12` [Compound P-0217, 2-[4-(3-ethoxy-1H-pyrazolo[3,4-b]pyridin-5-yl)phenyl]-N-[6-methyl-5-(trifluoromethyl)-3-pyridyl]acetamide], the concentration for half-maximal inhibition (IC50) (in assay [1]; on FLT3-ITD) was 0.0001 to 10 µM each time.
Regarding `COc1n[nH]c2ncc(-c3ccc(CC(=O)Nc4cnc(C)c(C(F)(F)F)c4)cc3)cc12` [Compound P-0218, 2-[4-(3-methoxy-1H-pyrazolo[3,4-b]pyridin-5-yl)phenyl]-N-[6-methyl-5-(trifluoromethyl)-3-pyridyl]acetamide], the IC50 (in assay [1]; on FLT3-ITD) was 0.0001 to 10 µM throughout.
For the compound `COc1ncc(NC(=O)Cc2ccc(-c3cnc4[nH]c(C#CC(C)(C)C)cc4c3)cc2)cc1C(F)(F)F` [Compound P-0219, 2-[4-[2-(3,3-dimethylbut-1-ynyl)-1H-pyrrolo[2,3-b]pyridin-5-yl]phenyl]-N-[6-methoxy-5-(trifluoromethyl)-3-pyridyl]acetamide], the IC50 (in assay [1]; at FLT3-ITD) was 0.0001 to 10 µM in each case.
For `Cc1ncc(NC(=O)Cc2ccc(-c3cnc4[nH]c(C#CC(C)(C)O)cc4c3)cc2)cc1C(F)(F)F` [Compound P-0220, 2-[4-[2-(3-hydroxy-3-methyl-but-1-ynyl)-1H-pyrrolo[2,3-b]pyridin-5-yl]phenyl]-N-[6-methyl-5-(trifluoromethyl)-3-pyridyl]acetamide], the IC50 (in assay [1]; on FLT3-ITD) was 0.0001 to 10 µM in each case.
As to `COc1ncc(NC(=O)Cc2ccc(-c3cnc(Nc4cn[nH]c4C)nc3)cc2)cc1C(F)(F)F` [Compound P-0221, N-[6-methoxy-5-(trifluoromethyl)-3-pyridyl]-2-[4-[2-[(5-methyl-1H-pyrazol-4-yl)amino]pyrimidin-5-yl]phenyl]acetamide], the IC50 (in assay [1]; on FLT3-ITD) was 0.0001 to 10 µM throughout.
In the case of `COCCn1cc(Nc2ncc(-c3ccc(CC(=O)Nc4cc(C(F)(F)F)ccn4)cc3)cn2)cn1` [Compound P-0222, 2-[4-[2-[[1-(2-methoxyethyl)pyrazol-4-yl]amino]pyrimidin-5-yl]phenyl]-N-[4-(trifluoromethyl)-2-pyridyl]acetamide], the IC50 (in assay [1]; at FLT3-ITD) was 0.0001 to 10 µM in each case.
